Results taken from patent US20260365633A1, “Novel PEM Structures for SBX” (Roche Sequencing Solutions, Inc., priority 2023, published 2026).

Molecular target: T1, C4760 DNA polymerase (a variant of DPO4) (Saccharolobus solfataricus, UniProt Q97W02, A155G/A42V/D156R/D292Y/D294N/E291S/E324K/E325K/E327K/E63R/E79L/G187P/G299W/I153V/I189F/I248T/I295S/K152A/K317Q/K321Q/K56Y/K78D/L293W/M76W/N188Y/P184Q/Q82W/Q83G/R300S/S297Y/S86E/T290K/T301W/V289W/V296Q)
T1 construct: Eco or Kod SSB in reaction as additive
T1 sequence (Q97W02 1-340 A155G/A42V/D156R/D292Y/D294N/E291S/E324K/E325K/E327K/E63R/E79L/G187P/G299W/I153V/I189F/I248T/I295S/K152A/K317Q/K321Q/K56Y/K78D/L293W/M76W/N188Y/P184Q/Q82W/Q83G/R300S/S297Y/S86E/T290K/T301W/V289W/V296Q): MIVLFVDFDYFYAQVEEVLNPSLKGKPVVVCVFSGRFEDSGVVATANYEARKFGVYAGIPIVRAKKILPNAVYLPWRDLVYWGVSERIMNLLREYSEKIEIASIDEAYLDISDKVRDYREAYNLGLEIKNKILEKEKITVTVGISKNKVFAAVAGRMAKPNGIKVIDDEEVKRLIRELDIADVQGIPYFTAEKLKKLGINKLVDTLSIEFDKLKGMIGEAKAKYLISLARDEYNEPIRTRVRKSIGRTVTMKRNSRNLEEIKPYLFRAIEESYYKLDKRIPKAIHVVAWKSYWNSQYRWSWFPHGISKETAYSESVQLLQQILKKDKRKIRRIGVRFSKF
Experiment: Primer extension on 45mer RNA template (HIV2) with C4760 polymerase, gel
Assay type: biochemical, Sulfolobus solfataricus
Conditions: 2 Mm PEM, 45mer RNA template derived from HIV2, Kod SSB, 30 minutes at 37 °C
Method: To begin to investigate the potential of PEMs to enhance diverse polymerase reactions, the ability of PEMS to enable DNA polymerase to utilize RNA as a template was tested. An initial screen of several compounds set forth in Table 1 was conducted using a 45mer RNA template derived from the HIV2 genome sequence. Primer extension reactions included the following reagents: 50 Mm TrisCl, 200 Mm NH4OAc, 20% PEG8K, 5% NMS, 0.6 nmol PP-60.20, 0.6 Mm MnCl2, 2 μg Kod single-strand binding protein (SSB), 1 M urea, 50 pmol each XNTP, 0.5 pmol template, 0.5 pmol [COMPOUND LEFT OUT] primer, 1.2 μg purified recombinant C4760 DNA polymerase (a variant of DPO4, see SEQ ID NO: 2), and 2 Mm PEM. 10 μL primer extension reactions were run for 30 minutes at 37 °C and reaction products were analyzed by gel electrophoresis.

Compound	PEM activity on RNA template
CCNC(=O)c1cc(-c2cn(-c3ccc(C(=O)O)c([N+](=O)[O-])c3)nn2)nc(-c2cn(-c3ccc(C(=O)O)c([N+](=O)[O-])c3)nn2)c1 [Compound 106, 4,4′-((4-(ethylcarbamoyl)pyridine-2,6-diyl)bis(1H-1,2,3-triazole-4,1-diyl))bis(2-nitrobenzoic acid)]	display PEM activity on an RNA template
O=C(NCCO)c1cc(-c2cn(-c3ccc(C(=O)O)c(C(F)(F)F)c3)nn2)nc(-c2cn(-c3ccc(C(=O)O)c(C(F)(F)F)c3)nn2)c1 [Compound 105, 4,4′-((4-((2-hydroxyethyl)carbamoyl)pyridine-2,6-diyl)bis(1H-1,2,3-triazole-4,1-diyl))bis(2-(trifluoromethyl)benzoic acid)]	display PEM activity on an RNA template
CCNC(=O)c1cc(-c2cn(-c3cc(C(=O)O)cc(C(F)(F)F)c3)nn2)nc(-c2cn(-c3cc(C(=O)O)cc(C(F)(F)F)c3)nn2)c1 [Compound 93, 5,5′-((4-(ethylcarbamoyl)pyridine-2,6-diyl)bis(1H-1,2,3-triazole-4,1-diyl))bis(3-(trifluoromethyl)benzoic acid)]	display PEM activity on an RNA template
CCN(CC)C(=O)c1cc(-c2cn(-c3ccc(C(=O)O)c(O)c3)nn2)nc(-c2cn(-c3ccc(C(=O)O)c(O)c3)nn2)c1 [Compound 49, 4,4′-((4-(diethylcarbamoyl)pyridine-2,6-diyl)bis(1H-1,2,3-triazole-4,1-diyl))bis(2-hydroxybenzoic acid)]	display PEM activity on an RNA template
CCNC(=O)c1cc(-c2cn(-c3ccc(C(=O)O)c(F)c3)nn2)nc(-c2cn(-c3ccc(C(=O)O)c(F)c3)nn2)c1 [Compound 76, 4,4′-((4-(ethylcarbamoyl)pyridine-2,6-diyl)bis(1H-1,2,3-triazole-4,1-diyl))bis(2-fluorobenzoic acid)]	display PEM activity on an RNA template
CCNC(=O)c1cc(-c2cn(-c3ccc(C(F)(F)F)c(C(=O)O)c3)nn2)nc(-c2cn(-c3ccc(C(F)(F)F)c(C(=O)O)c3)nn2)c1 [Compound 75, 5,5′-((4-(ethylcarbamoyl)pyridine-2,6-diyl)bis(1H-1,2,3-triazole-4,1-diyl))bis(2-(trifluoromethyl)benzoic acid)]	display PEM activity on an RNA template
CCNC(=O)c1cc(-n2cc(-c3ccc(C(=O)O)c(C(F)(F)F)c3)nn2)cc(-n2cc(-c3ccc(C(=O)O)c(C(F)(F)F)c3)nn2)c1 [Compound 116, 4,4′-((5-(ethylcarbamoyl)-1,3-phenylene)bis(1H-1,2,3-triazole-1,4-diyl))bis(2-(trifluoromethyl)benzoic acid)]	display PEM activity on an RNA template
O=C(O)c1ccc(-n2cc(-c3ccc(-c4cn(-c5ccc(C(=O)O)c(C(F)(F)F)c5)nn4)o3)nn2)cc1C(F)(F)F [Compound 118, 4,4′-(furan-2,5-diylbis(1H-1,2,3-triazole-4,1-diyl))bis(2-(trifluoromethyl)benzoic acid)]	display PEM activity on an RNA template
CCNC(=O)c1cc(-c2cn(-c3ccc(C(=O)O)c(C(F)(F)F)c3)nn2)nc(-c2cn(-c3ccc(C(=O)O)c(C(F)(F)F)c3)nn2)c1 [Compound 73, 4,4′-((4-(ethylcarbamoyl)pyridine-2,6-diyl)bis(1H-1,2,3-triazole-4,1-diyl))bis(2-(trifluoromethyl)benzoic acid)]	display PEM activity on an RNA template
CCNC(=O)c1cc(-c2cn(-c3ccc(C(=O)NCC(=O)O)c(C(F)(F)F)c3)nn2)nc(-c2cn(-c3ccc(C(=O)NCC(=O)O)c(C(F)(F)F)c3)nn2)c1 [Compound 110, 2,2′-((4,4′-((4-(ethylcarbamoyl)pyridine-2,6-diyl)bis(1H-1,2,3-triazole-4,1-diyl))bis(2-(trifluoromethyl)benzoyl))bis(azanediyl))diacetic acid]	display PEM activity on an RNA template
